Measurements taken from publication PMC7922224, “Searching for Small Molecules as Antibacterials: Non-Cytotoxic Diarylureas Analogues of Triclocarban” (Antibiotics, 2021).
≈ marks a conversion by molar mass, not a printed value.

Assays:
[1] = tested on: P. aeruginosa ATCC 27853; assay: MIC by broth microdilution (CLSI); type: cell-based; details: Pseudomonas aeruginosa, ATCC27853; Gram-negative; 37 °C, 24 h, Mueller Hinton Broth
Experimental: (§1) The in vitro Minimum Inhibitory Concentrations (MICs, μg/mL) were determined by the broth microdilution method according to the Clinical Laboratory Standards Institute (CLSI) guidelines. MIC values were recorded as the lowest concentration of compounds at which there was no optically detectable microorganism growth and evaluated by comparing the growth in each well visually with that of the growth in the control well for bacteria. All compounds were dissolved in dimethyl sulfoxide (DMSO) and were tested in a final concentration range of from 512 to 2 µg/mL. MICs for the reference antibiotic norfloxacin against quality control strains were used to confirm the validity of the screen. According to the CLSI guidelines, diphenylureas were tested in vitro against a panel of Gram-positive and Gram-negative bacteria belonging to the ATCC collection using the standard microdilution test for the determination of MICs. MICs of the synthesised compounds along with the parent compound TCC and with the standard antibiotic norfloxacin are listed in Table 1. The compounds were also analyzed in terms of molecular mass, logP (Table 1), number of hydrogen-bond donors and number of hydrogen-bond acceptors, and most of them obeyed Lipinski’s rule. […] Based on our results, it seems that the 3,4-dichloro-disubstitution pattern, which is present in TCC, is not crucial for activity. […] Moreover, the activity against Enterococcus faecalis was interesting. E. faecalis is a ubiquitous member of the healthy human gut microbiota and also a common opportunistic pathogen and leading cause of nosocomial infections. It has a high incidence for most infections, and the case numbers have been increasing in recent decades, likely due to its greater ability to persist in healthcare facilities and its higher abundance in the human gut microbiome. Kim et al. (2016) compared the bactericidal effects of plain and antibacterial soap containing 0.3% TCC. The authors found no significative difference between the effects of plain and medicated soap at either temperature, with the only exception of E. faecalis ATCC 19433 at 40 °C.
(§2) MICs (μg/mL) were determined by the broth microdilution method, using 96-well plates, according to CLSI [26]. Stock solutions of the investigated compounds were obtained by setting the concentration at the maximum possible value. Then, the stock solutions were diluted 1:10 with Mueller Hinton Broth (Oxoid, Italy). Afterwards, twofold serial dilutions in the suitable test medium were carried out to obtain a set of concentrations from 512 to 2 µg/mL in the wells. To obtain the stock solution, DMSO (100%) was employed as diluent. The following bacteria strains, available as freeze-dried discs, belonging to the ATCC collection, were used: Gram-positive: S. aureus ATCC 29213, 6538, and 6538P, E. faecalis ATCC 29212; Gram-negative: K. pneuomoniae ATCC 13883, P. aeruginosa ATCC 27853. To conserve the purity of cultures and to enable their reproducibility, cryovials of all microbial strains in the medium were set up and stored at −80 °C. Pre-cultures of each bacterial strain were prepared in Mueller Hinton Broth (MHB) and incubated at 37 °C for 3–5 h. The turbidity of bacterial cell suspension was calibrated to 0.5 McFarland Standard by the spectrophotometric method (OD 625 nm 0.08–0.10), as indicated in the CLSI protocol M7-A9 and, further, the standardized suspension was diluted (1:100) with MHB to reach 1–2 × 10^6 CFU/mL. All wells were seeded with 100 µl of the mentioned final inoculum, and some wells contained only inoculated broth as control growth. […] The MICs were determined by using the assay repeated twice in triplicate. Throughout the study, norfloxacin was used as reference antibiotic. Appropriate controls involved norfloxacin for bacteria as international reference standard. […]

[2] = tested on: K. pneumoniae ATCC 13883; assay: MIC by broth microdilution (CLSI); type: cell-based; details: Klebsiella pneumoniae, ATCC13883; Gram-negative; 37 °C, 24 h, Mueller Hinton Broth; read-out: MIC K.p. 13883
Experimental: as §1, §2

[3] = tested on: E. coli 25922; assay: MIC by broth microdilution (CLSI); type: cell-based; details: Escherichia coli, Gram-negative, 37 °C, 24 h, Mueller Hinton Broth
[4] = tested on: S. aureus ATCC 29213; assay: MIC by broth microdilution (CLSI); type: cell-based, Staphylococcus aureus; details: Staphylococcus aureus, ATCC29213; Gram-positive; 37 °C, 24 h, Mueller Hinton Broth
Experimental: as §1, §2

[5] = tested on: S. aureus ATCC 6538P; assay: MIC by broth microdilution (CLSI); type: cell-based, Staphylococcus aureus; details: Staphylococcus aureus, ATCC6538P; Gram-positive; 37 °C, 24 h, Mueller Hinton Broth
Experimental: as §1, §2

[6] = tested on: S. aureus ATCC 6538; assay: MIC by broth microdilution (CLSI); type: cell-based, Staphylococcus aureus; details: Staphylococcus aureus, ATCC6538; Gram-positive; 37 °C, 24 h, Mueller Hinton Broth
Experimental: as §1, §2

[7] = tested on: E. faecalis ATCC 29212; assay: MIC by broth microdilution (CLSI); type: cell-based, Enterococcus faecalis; details: Enterococcus faecalis, ATCC29212; Gram-positive; 37 °C, 24 h, Mueller Hinton Broth; read-out: MIC E.f. 29212
Experimental: as §1, §2

[8] = tested on: Staphylococcus aureus; assay: MIC by broth microdilution, S. aureus (strain not given); type: cell-based; details: strain not specified (best value among the ATCC strains), read-out: MIC against S. aureus
Experimental: as §1, §2

[9] = tested on: cancer cell lines (MCF-7, MDA-MB-231, HeLa, Ishikawa, A2058); assay: MTT cell viability assay, panel of cancer cell lines; type: cell-based; details: Homo sapiens, all cancer cell lines used, 72 h, read-out: IC50 against the cancer cell lines
Text: In order to investigate the anticancer effects of compounds 1ab, 1bc and 1ce (TCC), we used different human cancer cell models, namely, two breast cancer cells (MCF-7 and MDA-MB-231), two uterine cancer cells (HeLa and Ishikawa) and the melanoma epithelial cells A2058.
(§3) Human MCF-7 and MDA-MB-231 breast cancer cells, HeLa and […] uterine carcinoma cells, A2058 melanoma epithelial cells, MCF-10A mammary epithelial cells and Hek-293 embryonic kidney epithelial cells were obtained from American Type Culture Collection (ATCC, Manassas, VA, USA). Estrogen receptor positive [(ER(+)] MCF-7 and triple negative MDA-MB-231 breast cancer cells were maintained in Dulbecco’s modified Eagle’s medium/nutrient mixture F-12 Ham (DMEM-F12) medium containing 2 mmol/L L-glutamine, 1 mg/mL penicillin-streptomycin and supplemented with 5% fetal bovine serum (FBS). HeLa epithelial cervix carcinoma cells, estrogen receptor negative [ER(-)], and Ishikawa endometrial adenocarcinoma cell, estrogen receptor positive [ER(+)], were kept in minimum essential medium (MEM), supplemented with 10% FBS, 100 U/mL penicillin/streptomycin and 1% non-essential amino acid. A2058 highly metastatic melanoma epithelial cells were kept in DMEM low glucose (1 g/L), supplemented with 20% FBS, 1% l-glutamine and 100 U/mL penicillin/streptomycin. MCF-10A mammary epithelial cells, were cultured in DMEM/F12 medium, supplemented with 5% horse serum (HS), 100 U/mL penicillin/streptomycin, […] hydrocortisone, 20 ng/mL human epidermal growth factor (hEGF), […] and […] cholera enterotoxin (Sigma-Aldrich, Milan, Italy). Hek-293 embryonic kidney epithelial cells were cultured in DMEM high glucose (4.5 g/L), supplemented with 10% FBS, 1% l-glutamine and 100 U/mL penicillin/streptomycin. Cells were conserved at 37 °C in a humid atmosphere of 95% air and 5% CO2, and screened for contamination at regular intervals.
Cell viability was determined using the 3-(4,5-dimethylthiazol-2-y1)-2,5-diphenyltetrazolium bromide (MTT, Sigma-Aldrich, Milan, Italy) assay. […]

[10] = tested on: MCF-10A mammary epithelial cells; assay: MTT cell viability assay; type: cell-based; details: Homo sapiens, normal cells, 72 h, mean ± SD of three independent experiments
Text: as §3
(§4) Cell viability was determined using the 3-(4,5-dimethylthiazol-2-y1)-2,5-diphenyltetrazolium bromide (MTT, Sigma-Aldrich, Milan, Italy) assay. Cells were seeded on 48-well plates and grown in complete medium. Before treatment, cells were starved in serum free medium for 24 h to allow cell cycle synchronization. […] Data are representative of three independent experiments; standard deviations (SD) are shown.

[11] = tested on: A2058 melanoma epithelial cells; assay: MTT cell viability assay; type: cell-based; details: Homo sapiens, 72 h, mean ± SD of three independent experiments
Text: as §3, §4

[12] = tested on: HeLa uterine cancer cells; assay: MTT cell viability assay; type: cell-based; details: Homo sapiens, 72 h, mean ± SD of three independent experiments
Text: as §3, §4

[13] = tested on: Ishikawa uterine cancer cells; assay: MTT cell viability assay; type: cell-based; details: Homo sapiens, 72 h, mean ± SD of three independent experiments
Text: as §3, §4

[14] = tested on: MDA-MB-231 breast cancer cells; assay: MTT cell viability assay; type: cell-based; details: Homo sapiens, 72 h, mean ± SD of three independent experiments
Text: as §3, §4

[15] = tested on: Hek-293 embryonic kidney epithelial cells; assay: MTT cell viability assay; type: cell-based; details: Homo sapiens, HEK293, normal cells, 72 h, mean ± SD of three independent experiments
Text: as §3, §4

[16] = tested on: MCF-7 breast cancer cells; assay: MTT cell viability assay; type: cell-based; details: Homo sapiens, MCF7, 72 h, mean ± SD of three independent experiments
Text: as §3, §4

[17] = tested on: P. aeruginosa ATCC 27853; parameters: method as in earlier work; details: reference antibiotic, values according to CLSI (2012) ref 26; cited from earlier work
[18] = tested on: E. faecalis ATCC 29212; parameters: method as in earlier work; details: reference antibiotic, values according to CLSI (2012) ref 26; cited from earlier work
[19] = tested on: K. pneumoniae ATCC 13883; parameters: method as in earlier work; details: reference antibiotic, values according to CLSI (2012) ref 26; cited from earlier work
[20] = tested on: S. aureus ATCC 29213; parameters: method as in earlier work; details: reference antibiotic, values according to CLSI (2012) ref 26; cited from earlier work
[21] = tested on: E. coli 25922; parameters: method as in earlier work; details: reference antibiotic, values according to CLSI (2012) ref 26; cited from earlier work

Row | Compound | MIC [1] | MIC [2] | MIC [3] | MIC [4] | MIC [5] | MIC [6] | MIC [7] | MIC [8] | IC50 [9] | IC50 [10] | IC50 [11] | IC50 [12] | IC50 [13] | IC50 [14] | IC50 [15] | IC50 [16] | melting point | other results
1 | O=C(Nc1ccc(Cl)cc1)Nc1ccc(Cl)c(Cl)c1 [1ce (TCC), 1-(3,4-Dichlorophenyl)-3-(4-chlorophenyl)urea, reference compound] | 256 µg/mL (≈ 811 µM) | 256 µg/mL (≈ 811 µM) | 256 µg/mL (≈ 811 µM) | 16 µg/mL (≈ 50.7 µM) | 16 µg/mL (≈ 50.7 µM) | 128 µg/mL (≈ 406 µM) | 64 µg/mL (≈ 203 µM) | 16 µg/mL (≈ 50.7 µM) | 0.64 to 1.68 µg/mL (≈ 2.03 to 5.32 µM) | 1.43 ± 0.7 µg/mL (≈ 4.53 µM) | 0.89 ± 0.7 µg/mL (≈ 2.82 µM) | 1.01 ± 1.1 µg/mL (≈ 3.2 µM) | 1.68 ± 0.9 µg/mL (≈ 5.32 µM) | 0.89 ± 0.8 µg/mL (≈ 2.82 µM) | 1.6 ± 0.8 µg/mL (≈ 5.07 µM) | 0.64 ± 0.5 µg/mL (≈ 2.03 µM) |  | 
2 | Cc1cccc(C)c1NC(=O)Nc1ccc(Cl)cc1 [1bc, 1-(2,6-Dimethylphenyl)-3-(4-chlorophenyl)urea] | > 256 µg/mL | > 256 µg/mL | > 256 µg/mL | 256 µg/mL (≈ 932 µM) | 16 µg/mL (≈ 58.2 µM) | 16 µg/mL (≈ 58.2 µM) | 32 µg/mL (≈ 116 µM) | 16 µg/mL (≈ 58.2 µM) | > 200 µg/mL | > 200 µg/mL | > 200 µg/mL | > 200 µg/mL | > 200 µg/mL | > 200 µg/mL | > 200 µg/mL | > 200 µg/mL | 244 to 245 °C | 
3 | Cc1ccc(NC(=O)Nc2c(C)cccc2C)cc1 [1ab, 1-(2,6-Dimethylphenyl)-3-p-tolylurea] | > 256 µg/mL | > 256 µg/mL | > 256 µg/mL | > 256 µg/mL | 16 µg/mL (≈ 62.9 µM) | 16 µg/mL (≈ 62.9 µM) | 32 µg/mL (≈ 126 µM) | 16 µg/mL (≈ 62.9 µM) | > 200 µg/mL | > 200 µg/mL | > 200 µg/mL | > 200 µg/mL | > 200 µg/mL | > 200 µg/mL | > 200 µg/mL | > 200 µg/mL | 242 to 243 °C | 
4 | CCn1cc(C(=O)O)c(=O)c2cc(F)c(N3CCNCC3)cc21 [NRF, norfloxacin] |  |  |  |  |  |  |  |  |  |  |  |  |  |  |  |  |  | MIC P. a. 27853 [17]: 1 to 4 µg/mL; MIC E.f. 29212 [18]: 2 to 8 µg/mL; MIC K.p. 13883 [19]: 0.5 to 1 µg/mL; MIC S.a. 29213 [20]: 0.5 to 2 µg/mL; MIC E.c. 25922 [21]: 0.03 to 0.12 µg/mL
